{
  "source": "paper PMC7243081",
  "about": "(Slas Discovery, 2019)",
  "key": {"[1]": {"molecular_target": "T1, α1, β2, and γ2s subunits of the rat GABAA receptors (HEK-GABA cells) (Rattus norvegicus, UniProt P18508+P62813+P63138)", "T1 sequence (P62813 28-455)": "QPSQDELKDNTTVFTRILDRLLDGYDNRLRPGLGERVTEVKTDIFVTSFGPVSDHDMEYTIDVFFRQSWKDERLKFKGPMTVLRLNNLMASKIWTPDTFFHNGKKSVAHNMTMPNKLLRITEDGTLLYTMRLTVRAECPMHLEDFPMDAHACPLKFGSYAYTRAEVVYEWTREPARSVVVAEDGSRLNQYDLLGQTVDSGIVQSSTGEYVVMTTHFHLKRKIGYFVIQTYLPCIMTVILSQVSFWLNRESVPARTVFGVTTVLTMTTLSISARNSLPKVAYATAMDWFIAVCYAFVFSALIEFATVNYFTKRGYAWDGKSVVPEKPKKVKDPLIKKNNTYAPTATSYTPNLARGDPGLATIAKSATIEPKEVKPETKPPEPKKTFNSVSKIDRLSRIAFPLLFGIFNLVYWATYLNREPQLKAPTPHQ", "T1 sequence (P63138 25-474 limits assumed)": "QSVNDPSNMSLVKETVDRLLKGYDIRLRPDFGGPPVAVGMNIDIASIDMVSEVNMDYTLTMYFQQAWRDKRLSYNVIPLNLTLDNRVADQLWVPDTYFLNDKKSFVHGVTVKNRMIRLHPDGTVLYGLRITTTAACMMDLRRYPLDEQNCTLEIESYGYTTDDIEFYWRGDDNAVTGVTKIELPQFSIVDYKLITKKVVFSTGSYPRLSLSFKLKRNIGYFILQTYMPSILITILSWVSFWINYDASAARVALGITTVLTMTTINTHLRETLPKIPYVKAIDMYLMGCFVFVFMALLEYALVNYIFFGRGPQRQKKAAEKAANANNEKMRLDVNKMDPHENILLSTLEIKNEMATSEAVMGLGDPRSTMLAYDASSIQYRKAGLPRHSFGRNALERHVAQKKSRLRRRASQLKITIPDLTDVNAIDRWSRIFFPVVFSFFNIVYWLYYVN", "T1 sequence (P18508 39-466)": "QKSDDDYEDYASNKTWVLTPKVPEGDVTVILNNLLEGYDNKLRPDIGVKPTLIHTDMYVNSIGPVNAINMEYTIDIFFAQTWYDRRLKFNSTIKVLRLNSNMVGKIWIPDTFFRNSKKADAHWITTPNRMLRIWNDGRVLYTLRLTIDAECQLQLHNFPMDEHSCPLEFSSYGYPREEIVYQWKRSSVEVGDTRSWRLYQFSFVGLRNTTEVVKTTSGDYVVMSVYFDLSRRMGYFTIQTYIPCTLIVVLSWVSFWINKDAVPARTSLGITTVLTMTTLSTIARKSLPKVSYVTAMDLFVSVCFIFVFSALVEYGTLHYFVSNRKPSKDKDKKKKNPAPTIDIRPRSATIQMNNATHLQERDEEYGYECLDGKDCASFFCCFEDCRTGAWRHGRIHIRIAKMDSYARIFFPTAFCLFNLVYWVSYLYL", "test": "QP-DHM modulator mode", "type": "cell-based", "details": "maximum concentration of compound, with GABA at EC30, Fig. 3D"}, "[2]": {"test_system": "α1β2γ2 expressed in Xenopus oocytes", "details": "read-out: EC50 as modulator; cited from earlier work"}, "Wild-type HEK cells": {"test_system": "Wild-type HEK cells", "details": "patch clamp; cited from earlier work"}, "[3]": {"molecular_target": "T1, α1, β2, and γ2s subunits of the rat GABAA receptors (HEK-GABA cells)", "test": "Whole-cell electrophysiology recording on HEK-GABA cells", "type": "cell-based", "details": "electrophysiology vs QP-DHM"}, "[4]": {"molecular_target": "T1, α1, β2, and γ2s subunits of the rat GABAA receptors (HEK-GABA cells)", "test": "QP-DHM blind agonist screen", "type": "cell-based"}, "[5]": {"molecular_target": "GABAA receptor (α1, β2, and γ2s subunits, HEK-GABA) (Rattus norvegicus, UniProt P18508+P62813+P63138)", "sequence (P62813 28-455)": "as the sequence (P62813 28-455) above", "sequence (P63138 25-474 limits assumed)": "as the sequence (P63138 25-474 limits assumed) above", "sequence (P18508 39-466)": "as the sequence (P18508 39-466) above", "type": "cell-based"}, "GABAA receptor": {"molecular_target": "GABAA receptor", "details": "cited from earlier work; for IC50: read-out: reported IC50"}, "[6]": {"test_system": "human α1β2γ2L GABAA receptor subunits in L(tk−) cells", "details": "L(tk−) cells stably transfected with human α1β2γ2L; cited from earlier work"}, "[7]": {"details": "Table 1, dose-response curves of validated hits"}},
  "note": "Like-named read-outs stand apart in the source and are kept apart here.",
  "data": [
    {"compound": "CCN(C(C)=O)c1cccc(-c2ccnc3c(C#N)cnn23)c1", "note": "[Zaleplon]", "values": [
      {"measurement": "effect of GABA increased to % of the maximum (GABA at 10 µM)", "setting": "[1]", "value": 41, "unit": "%"},
      {"measurement": "EC50", "setting": "[2]", "value": 170, "unit": "nM"}
    ]},
    {"compound": "NCCCC(=O)O", "note": "[GABA]", "values": [
      {"measurement": "electrophysiological response of wild-type HEK cells", "setting": "Wild-type HEK cells", "value": "no electrophysiological response"}
    ]},
    {"compound": "CC[C@H](C)[C@H]1O[C@]2(C=C[C@@H]1C)C[C@@H]1C[C@@H](C/C=C(\\C)[C@@H](O[C@H]3C[C@H](OC)[C@@H](O[C@H]4C[C@H](OC)[C@@H](O)[C@H](C)O4)[C@H](C)O3)[C@@H](C)/C=C/C=C3\\CO[C@@H]4[C@H](O)C(C)=C[C@@H](C(=O)O1)[C@]34O)O2", "note": "[Avermectin B1a]", "values": [
      {"measurement": "EC50 with electrophysiology relative to QP-DHM (fold higher)", "setting": "[3]", "value": "~ 10 ×"},
      {"measurement": "EC50", "setting": "[4]", "value": 6900, "unit": "nM"},
      {"measurement": "Amplitude (%)", "setting": "[4]; [7]", "value": 94, "unit": "%"},
      {"measurement": "Hill Coefficient", "setting": "[4]; [7]", "value": 6.3},
      {"measurement": "Amplitude (%)", "setting": "[4]; Table 2, avermectin family", "value": 94, "unit": "%"},
      {"measurement": "Hill Coefficient", "setting": "[4]; Table 2, avermectin family", "value": 6.3}
    ]},
    {"compound": "CC[C@]1(O)C[C@@H]2CN(CCc3c([nH]c4ccccc34)[C@@](C(=O)OC)(c3cc4c(cc3OC)N(C)[C@H]3[C@@](O)(C(N)=O)[C@H](O)[C@]5(CC)C=CCN6CC[C@]43[C@@H]65)C2)C1", "note": "[STOCK1N-75293, Vindesine]", "values": [
      {"measurement": "outcome of hits validation (activity and specificity for the GABAA receptor)", "setting": "[5]", "value": "marginal effect"}
    ]},
    {"compound": "COc1ccc(-c2ccc(=N)n(CCCC(=O)O)n2)cc1", "note": "[Gabazine]", "values": [
      {"measurement": "IC50", "setting": "GABAA receptor; in the presence of 3 μM GABA", "value": "~200", "unit": "nM"}
    ]},
    {"compound": "Ivermectin", "values": [
      {"measurement": "rise time relative to GABA (times longer)", "setting": "GABAA receptor", "value": "about 500 times"},
      {"measurement": "EC50 with electrophysiology relative to QP-DHM (fold higher)", "setting": "[3]", "value": "~ 10 ×"}
    ]},
    {"compound": "CN1CCc2cc3c(cc2[C@H]1[C@@H]1OC(=O)c2c1ccc1c2OCO1)OCO3", "note": "[(+)-Bicuculline]", "values": [
      {"measurement": "IC50", "setting": "GABAA receptor; in the presence of 3 μM GABA", "value": 900, "unit": "nM"},
      {"measurement": "IC50", "setting": "GABAA receptor; in the presence of 10 μM GABA", "value": 530, "unit": "nM"}
    ]},
    {"compound": "CC(=O)OC1CCC2(C)C(CCC3C4CCC(C(C)=O)C4(C)CC(=O)C32)C1", "note": "(stereo not drawn)", "values": [
      {"measurement": "result in blind agonist screen", "setting": "[4]; natural products collection", "value": "negative"}
    ]},
    {"compound": "NCc1cc(=O)[nH]o1", "note": "[Muscimol]", "values": [
      {"measurement": "EC50", "setting": "[4]", "value": 200, "unit": "nM"},
      {"measurement": "Amplitude (%)", "setting": "[4]; [7]", "value": 100, "unit": "%"},
      {"measurement": "Hill Coefficient", "setting": "[4]; [7]", "value": 1.9}
    ]},
    {"compound": "Picrotoxin", "values": [
      {"measurement": "IC50", "setting": "GABAA receptor; in the presence of 10 μM GABA", "value": 3100, "unit": "nM"}
    ]},
    {"compound": "COc1cc2c(c(OC)c1OC)-c1ccc(OC)c(=O)cc1[C@@H](NC(C)=O)CC2", "note": "[Colchicine]", "values": [
      {"measurement": "effect on GABA currents", "setting": "[6]", "value": "significantly inhibits GABA currents"}
    ]}
  ]
}
